Measured values from ChEMBL document CHEMBL1201862, “PubChem BioAssay data set” (2004).
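Five concentrations, 48 hours, 96-well plates. GI50 is the concentration that inhibits growth by half.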 Activity calls are given as the source filed them. Cut-off read from the data, not from the text of the source: active = GI50 up to about 1.1 µM and inactive = higher.

Legend:
Assay in all cases: NCI tumour cell line growth inhibition, 48 h
[1] = system: UACC-62
[2] = system: M14
[3] = system: OVCAR-8
[4] = system: SN12C
[5] = system: DU-145
[6] = system: MDA-N
[7] = system: UO-31
[8] = system: MDA-MB-231
[9] = system: SK-MEL-2
[10] = system: RPMI-8226
[11] = system: HT-29
[12] = system: LOX IMVI
[13] = system: SNB-75
[14] = system: MCF7
[15] = system: BT-549
[16] = system: EKVX
[17] = system: CCRF-CEM
[18] = system: MOLT-4
[19] = system: NCI/ADR-RES
[20] = system: A549
[21] = system: CAKI-1
[22] = system: HOP-92
[23] = system: PC-3
[24] = system: MDA-MB-435
[25] = system: SNB-19
[26] = system: NCI-H460
[27] = system: UACC-257
[28] = system: OVCAR-4
[29] = system: SK-MEL-28
[30] = system: T47D
[31] = system: ACHN
[32] = system: SK-MEL-5
[33] = system: SF-295
[34] = system: SF-268
[35] = system: TK-10
[36] = system: A498
[37] = system: OVCAR-3
[38] = system: RXF 393
[39] = system: NCI-H226
[40] = system: HCC 2998
[41] = system: COLO 205
[42] = system: NCI-H23
[43] = system: 786-0
[44] = system: NCI-H522
[45] = system: KM12
[46] = system: SW-620
[47] = system: HL-60
[48] = system: IGROV-1
[49] = system: SK-OV-3
[50] = system: HCT-15
[51] = system: HCT-116
[52] = system: K562
[53] = system: Malme-3M
[54] = system: Hs-578T
[55] = system: OVCAR-5
[56] = system: SF-539
[57] = system: HOP-62
[58] = system: SR
[59] = system: U-251

C=CCN(c1cc(OCc2ccccc2)c(NC(C)=O)cc1[N+](=O)[O-])S(C)(=O)=O
GI50 [1]: 58.9 µM (inactive) | GI50 [2]: 38.3 µM (inactive) | GI50 [3]: 23.1 µM (inactive) | GI50 [4]: 29 µM (inactive) | GI50 [5]: > 100 µM (inactive) | GI50 [6]: > 100 µM (inactive) | GI50 [7]: 33.1 µM (inactive) | GI50 [8]: 15.7 µM (inactive) | GI50 [9]: 26.9 µM (inactive) | GI50 [10]: 46.7 µM (inactive) | GI50 [11]: > 100 µM (inactive) | GI50 [12]: 50.6 µM (inactive) | GI50 [13]: 20 µM (inactive) | GI50 [14]: 52.2 µM (inactive) | GI50 [15]: 28.8 µM (inactive) | GI50 [16]: 7.05 µM (inactive) | GI50 [17]: > 100 µM (inactive) | GI50 [18]: > 100 µM (inactive) | GI50 [19]: 29.6 µM (inactive) | GI50 [20]: 33.2 µM (inactive) | GI50 [21]: 42 µM (inactive) | GI50 [22]: 19.2 µM (inactive) | GI50 [23]: > 100 µM (inactive) | GI50 [24]: > 100 µM (inactive) | GI50 [25]: 17.9 µM (inactive) | GI50 [26]: > 100 µM (inactive) | GI50 [27]: > 100 µM (inactive) | GI50 [28]: > 100 µM (inactive) | GI50 [29]: > 100 µM (inactive) | GI50 [30]: 29.3 µM (inactive) | GI50 [31]: 52.7 µM (inactive) | GI50 [32]: > 100 µM (inactive) | GI50 [33]: 23.5 µM (inactive) | GI50 [34]: 21.3 µM (inactive) | GI50 [35]: 36.5 µM (inactive) | GI50 [36]: 19.3 µM (inactive) | GI50 [37]: 34.9 µM (inactive) | GI50 [38]: 18.7 µM (inactive) | GI50 [39]: 12.7 µM (inactive) | GI50 [40]: > 100 µM (inactive) | GI50 [41]: > 100 µM (inactive) | GI50 [42]: 18.4 µM (inactive) | GI50 [43]: 20.6 µM (inactive) | GI50 [44]: 35.5 µM (inactive) | GI50 [45]: > 100 µM (inactive) | GI50 [46]: > 100 µM (inactive) | GI50 [47]: > 100 µM (inactive) | GI50 [48]: 21.1 µM (inactive) | GI50 [49]: 17.9 µM (inactive) | GI50 [50]: > 100 µM | GI50 [51]: 28.5 µM (inactive) | GI50 [52]: > 100 µM (inactive) | GI50 [53]: 26.7 µM (inactive) | GI50 [54]: 24.2 µM (inactive) | GI50 [55]: > 100 µM (inactive) | GI50 [56]: 17.2 µM (inactive) | GI50 [57]: 22 µM (inactive)

O=c1[nH]c2cc3cccnc3c(Cl)c2nc1CBr
GI50 [1]: 12.4 µM (inactive) | GI50 [2]: 13.5 µM (inactive) | GI50 [3]: 17.9 µM (inactive) | GI50 [4]: 14 µM (inactive) | GI50 [5]: 15.6 µM (inactive) | GI50 [6]: 15.6 µM (inactive) | GI50 [7]: 10.5 µM (inactive) | GI50 [8]: 15.9 µM (inactive) | GI50 [58]: 6.18 µM (inactive) | GI50 [59]: 15.4 µM (inactive) | GI50 [10]: 6.05 µM (inactive) | GI50 [11]: 19.5 µM (inactive) | GI50 [12]: 13.9 µM (inactive) | GI50 [14]: 10.1 µM (inactive) | GI50 [15]: 26.5 µM (inactive) | GI50 [16]: 16.1 µM (inactive) | GI50 [17]: 5.79 µM (inactive) | GI50 [18]: 8.97 µM (inactive) | GI50 [19]: 20 µM (inactive) | GI50 [20]: 19.3 µM (inactive) | GI50 [21]: 15.1 µM (inactive) | GI50 [22]: 14.1 µM (inactive) | GI50 [23]: 15.7 µM (inactive) | GI50 [24]: 16 µM (inactive) | GI50 [25]: 5.73 µM (inactive) | GI50 [26]: 19 µM (inactive) | GI50 [27]: 18.7 µM (inactive) | GI50 [28]: 19.3 µM (inactive) | GI50 [30]: 5.89 µM (inactive) | GI50 [31]: 7.4 µM (inactive) | GI50 [32]: 17.5 µM (inactive) | GI50 [33]: 21.6 µM (inactive) | GI50 [34]: 22.2 µM (inactive) | GI50 [35]: 21.7 µM (inactive) | GI50 [37]: 14.8 µM (inactive) | GI50 [38]: 17.7 µM (inactive) | GI50 [39]: 19.1 µM (inactive) | GI50 [41]: 13.8 µM (inactive) | GI50 [42]: 15 µM (inactive) | GI50 [43]: 6.49 µM (inactive) | GI50 [44]: 11 µM (inactive) | GI50 [45]: 15.5 µM (inactive) | GI50 [46]: 11.4 µM (inactive) | GI50 [47]: 20.3 µM (inactive) | GI50 [48]: 2.92 µM (inactive) | GI50 [49]: 26 µM (inactive) | GI50 [50]: 3.08 µM | GI50 [51]: 11.7 µM (inactive) | GI50 [52]: 12.1 µM (inactive) | GI50 [53]: 23.1 µM (inactive) | GI50 [54]: 13.1 µM (inactive) | GI50 [55]: 20.3 µM (inactive) | GI50 [56]: 11.2 µM (inactive) | GI50 [57]: 15.5 µM (inactive)

CN(C)C(=O)C1CCN(Cc2c[nH]c3ccccc23)CC1
GI50 [1]: > 100 µM (inactive) | GI50 [2]: > 100 µM (inactive) | GI50 [3]: > 100 µM (inactive) | GI50 [4]: > 100 µM (inactive) | GI50 [5]: > 100 µM (inactive) | GI50 [6]: > 100 µM (inactive) | GI50 [7]: > 100 µM (inactive) | GI50 [8]: > 100 µM (inactive) | GI50 [58]: > 100 µM (inactive) | GI50 [59]: > 100 µM (inactive) | GI50 [9]: > 100 µM (inactive) | GI50 [10]: > 100 µM (inactive) | GI50 [11]: > 100 µM (inactive) | GI50 [12]: > 100 µM (inactive) | GI50 [13]: > 100 µM (inactive) | GI50 [14]: > 100 µM (inactive) | GI50 [15]: > 100 µM (inactive) | GI50 [16]: > 100 µM (inactive) | GI50 [18]: > 100 µM (inactive) | GI50 [19]: > 100 µM (inactive) | GI50 [20]: > 100 µM (inactive) | GI50 [21]: > 100 µM (inactive) | GI50 [22]: > 100 µM (inactive) | GI50 [23]: > 100 µM (inactive) | GI50 [24]: > 100 µM (inactive) | GI50 [25]: > 100 µM (inactive) | GI50 [27]: > 100 µM (inactive) | GI50 [28]: > 100 µM (inactive) | GI50 [29]: > 100 µM (inactive) | GI50 [30]: > 100 µM (inactive) | GI50 [31]: > 100 µM (inactive) | GI50 [32]: > 100 µM (inactive) | GI50 [33]: > 100 µM (inactive) | GI50 [34]: > 100 µM (inactive) | GI50 [35]: > 100 µM (inactive) | GI50 [36]: > 100 µM (inactive) | GI50 [37]: > 100 µM (inactive) | GI50 [38]: > 100 µM (inactive) | GI50 [39]: > 100 µM (inactive) | GI50 [41]: > 100 µM (inactive) | GI50 [42]: > 100 µM (inactive) | GI50 [43]: > 100 µM (inactive) | GI50 [44]: > 100 µM (inactive) | GI50 [45]: > 100 µM (inactive) | GI50 [46]: 17 µM (inactive) | GI50 [47]: > 100 µM (inactive) | GI50 [48]: > 100 µM (inactive) | GI50 [49]: > 100 µM (inactive) | GI50 [50]: > 100 µM | GI50 [51]: > 100 µM (inactive) | GI50 [52]: > 100 µM (inactive) | GI50 [53]: > 100 µM (inactive) | GI50 [54]: > 100 µM (inactive) | GI50 [55]: > 100 µM (inactive) | GI50 [57]: > 100 µM (inactive)
